From the supplement of paper PMC11562712

Assay: first-order primary biodegradation rate constant k (sorption-corrected, fDis-corrected) (d-1); higher = faster biodegradation
Outline: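 River water with sieved sediment (50 g wet solid L^–1) from German, Swiss, Spanish and Greek river segments was spiked with 129 compounds at 1 μg L^–1 each. It was shaken in the dark at river water temperature (20.5 ± 3.5 °C) for 10 days. Filtered water-phase subsamples were analysed by UHPLC-Orbitrap-MS/MS. First-order k came from log peak-area regression over three replicates, corrected for azide-sterilised sorption-control dissipation and divided by dissolved fraction; invalid fits excluded.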

[1] = river segment: Germany (DE) T_Contam, incubation temperature 24 °C
[2] = river segment: Germany (DE) T_Pris, incubation temperature 24 °C
[3] = river segment: Greece (EL) G_Contam, incubation temperature 19 °C
[4] = river segment: Greece (EL) G_Pris, incubation temperature 19 °C
[5] = river segment: Greece (EL) L_Contam, incubation temperature 19 °C
[6] = river segment: Switzerland (CH) U_Contam, incubation temperature 17 °C
[7] = river segment: Greece (EL) A_Contam, incubation temperature 19 °C
[8] = river segment: Spain (ES) B_Contam, incubation temperature 24 °C
[9] = river segment: Spain (ES) C_Contam, incubation temperature 24 °C
[10] = river segment: Spain (ES) F_Pris_Salt, incubation temperature 24 °C
[11] = river segment: Spain (ES) L_Contam, incubation temperature 24 °C
[12] = river segment: Switzerland (CH) R_Contam, incubation temperature 17 °C
[13] = river segment: Germany (DE) H_Contam, incubation temperature 24 °C
[14] = river segment: Switzerland (CH) U_Pris, incubation temperature 17 °C
[15] = river segment: Switzerland (CH) C_Contam, incubation temperature 17 °C

SMILES	first-order primary biodegradation rate constant k [1]	first-order primary biodegradation rate constant k [2]	first-order primary biodegradation rate constant k [3]	first-order primary biodegradation rate constant k [4]	first-order primary biodegradation rate constant k [5]	first-order primary biodegradation rate constant k [6]	first-order primary biodegradation rate constant k [7]	first-order primary biodegradation rate constant k [8]	first-order primary biodegradation rate constant k [9]	first-order primary biodegradation rate constant k [10]	first-order primary biodegradation rate constant k [11]	first-order primary biodegradation rate constant k [12]	first-order primary biodegradation rate constant k [13]	first-order primary biodegradation rate constant k [14]	first-order primary biodegradation rate constant k [15]
CC(C)(C#N)c1cc(Cn2cncn2)cc(C(C)(C)C#N)c1 [Anastrozole]	0.0241	0.0157	0.658	0.133	0.113	0.00582	–	–	–	–	–	–	–	–	–
COc1ccc2cc([C@H](C)C(=O)O)ccc2c1 [Naproxen]	0.145	0.00509	0.0195	0.102	0.0444	0.0814	0.115	0.76	0.248	0.076	0.413	0.141	–	–	–
O=[N+]([O-])/N=C1\NCCN1Cc1ccc(Cl)nc1 [Imidacloprid]	0.0495	–	–	–	–	–	–	–	0.0128	–	–	–	0.029	0.00932	–
CN(C)CCN1C(=O)c2ccccc2N(C)c2ccccc21 [Dibenzepin]	0.567	0.127	–	0.127	0.215	0.0346	0.19	0.0245	0.0361	–	–	0.0245	0.0259	0.0723	0.0239
Nc1nc(NC2CC2)c2ncn([C@H]3C=C[C@@H](CO)C3)c2n1 [Abacavir]	1.17	1.37	1.43	2.35	12	1.47	2.15	–	0.639	0.449	2.21	1.18	1.6	1.5	0.83
CCCCC(=O)N(Cc1ccc(-c2ccccc2-c2nnn[nH]2)cc1)[C@H](C(=O)O)C(C)C [Valsartan]	0.54	0.204	0.418	0.275	–	0.556	0.42	–	0.194	0.0324	0.374	0.52	0.469	0.429	0.186
Cn1c(=O)c2c(ncn2C)n(C)c1=O [Caffeine]	0.415	0.0734	0.085	0.0394	0.276	0.368	0.894	1.52	0.276	0.215	0.895	0.144	0.262	0.69	0.172
O=C1Nc2ccc(Cl)cc2C(c2ccccc2)=NC1O (stereo not given) [Oxazepam]	0.0412	–	–	–	0.027	0.0242	–	–	0.124	–	0.0149	–	0.0405	0.00813	–
CCCCC(CC)COCC(O)CO (stereo not given) [3-((2-Ethylhexyl)oxy)propane-1,2-diol]	–	–	1.93	–	5.22	0.0899	0.277	–	–	–	0.469	0.288	1.43	–	6.13
Cc1ccc(S(=O)(=O)O)cc1 [p-Toluenesulfonic acid]	0.52	0.422	–	0.0811	0.27	0.186	0.369	0.18	0.543	0.0548	0.55	0.292	1.06	0.12	0.764
COc1cccc(C2(O)CCCCC2CN(C)C)c1 (stereo not given) [Tramadol]	0.058	0.00925	–	0.0141	0.0437	0.0131	0.0025	0.00653	0.00694	–	0.00992	0.00497	0.0149	0.0152	–
COCC(C)N(C(=O)CCl)c1c(C)csc1C (stereo not given) [Dimethenamid]	0.036	–	–	–	0.014	0.0318	0.0238	–	–	–	0.0244	0.0163	–	0.0152	–
CN(C)CCCC1(c2ccc(F)cc2)OCc2cc(C#N)ccc21 (stereo not given) [Citalopram]	4.92	–	8.04	–	19.9	0.0832	–	0.279	0.06	–	–	0.288	0.00417	0.185	0.0178
Cc1ccc(NC(=O)N(C)C)cc1Cl [Chlortoluron]	0.156	0.00289	0.0396	0.423	0.139	0.0378	0.306	0.0189	–	–	0.114	–	0.0585	0.0569	–
